Where two headings read alike, the source gives them in different places. Where a SMILES comes first, the peptide text is derived from it. Where no end group is shown, it is not given here. [ ]: non-standard residue; d: D form. The star is where a group is joined. Nva = CCC[C@H](N)C(=O)O; Ms = CS(=O)(=O)*; CH2Cl = ClC*
How the values were obtained:
plasmin = biological target: T1, plasmin (Homo sapiens, UniProt P00747); experiment: Amidolytic activity of plasmin, substrate S-2251; format: biochemical; conditions: Ki calculated from IC50 by Cheng-Prusoff; triplicate; read-out: Ki ± SD Plasmin S-2251
T1 construct: converts the pro-enzyme plasminogen into its active form plasmin; purchased Chromogenix (Milano, Italy)
T1 sequence (P00747 581-810 limits assumed): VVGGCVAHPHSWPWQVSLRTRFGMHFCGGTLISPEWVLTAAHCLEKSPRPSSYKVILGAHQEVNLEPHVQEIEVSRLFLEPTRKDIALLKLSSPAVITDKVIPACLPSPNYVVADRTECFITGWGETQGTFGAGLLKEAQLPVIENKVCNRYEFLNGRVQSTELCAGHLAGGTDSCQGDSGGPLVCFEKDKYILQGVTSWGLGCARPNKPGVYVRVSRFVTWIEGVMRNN
T1 sequence (P00747 97-580 partner limits assumed): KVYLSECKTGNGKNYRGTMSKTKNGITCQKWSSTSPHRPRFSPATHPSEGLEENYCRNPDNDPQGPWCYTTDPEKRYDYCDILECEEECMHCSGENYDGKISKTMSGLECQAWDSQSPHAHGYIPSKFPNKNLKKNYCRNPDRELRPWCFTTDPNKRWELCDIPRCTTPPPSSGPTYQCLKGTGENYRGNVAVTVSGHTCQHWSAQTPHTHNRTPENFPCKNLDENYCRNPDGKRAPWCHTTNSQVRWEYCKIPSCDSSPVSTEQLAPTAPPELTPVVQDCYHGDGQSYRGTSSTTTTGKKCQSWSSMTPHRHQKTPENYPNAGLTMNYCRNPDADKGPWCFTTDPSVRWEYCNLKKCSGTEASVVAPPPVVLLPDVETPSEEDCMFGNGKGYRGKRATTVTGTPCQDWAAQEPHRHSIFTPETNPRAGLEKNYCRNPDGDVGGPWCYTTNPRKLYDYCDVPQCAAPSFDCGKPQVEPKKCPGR
Description: (§1) Determination of amidolytic activity was performed as previously described (Okada et al. [1988]). The detailed description of the method is given below. The buffer and the enzyme solution included: • tris buffer—0.6 ml (pH 8.8), […]
(§2) synthetic substrate: S-2238 (0.2 ml, 0.75 mM); • (c) tris buffer—0.5 ml (pH 7.4), enzyme: plasmin (0.4 U/ml), synthetic substrate: S-2251 (0.2 ml, 3 mM); • (d) borane buffer—0.5 ml (pH 7.5), Buffer and 0.1 ml of enzyme solution was added to 0.2 ml of examined compound dissolved in 0.15 M NaCl (1–17) (as control 0.15 M NaCl). The mixture was incubated for 3 min at 37 °C, then the synthetic substrate was added. After 20 min of incubation, the reaction was stopped by adding 0.1 ml of 50 % acetic acid, and the absorbance of the released p-nitroaniline was measured at 405 nm (Spekol 1300, AnalyticJena). Every value represents the average of the triplicate determination. IC50 value was considered as the concentration of the inhibitor, which decreased the absorbance at 405 nm by 50 %, compared with the absorbance measured under the same conditions without the inhibitor. Ki was calculated from IC50 based on Cheng–Prusoff equation (Cheng and Prusoff [1973]).

MDA-MB-231 cells = conditions: 24 h
thrombin = thrombin (Bos taurus, UniProt P00735); experiment: Amidolytic activity of thrombin, substrate S-2238; format: biochemical; conditions: Ki calculated from IC50 by Cheng-Prusoff, n.i. = no effect at maximum concentration 20 mM, read-out: Ki ± SD Thrombin
Description: as §1
as §2, with “synthetic substrate: S-2444 (0.1 ml, 3 mM); • (b) tris buffer—0.5 ml (pH 8.4), enzyme: thrombin (1 U/ml), synthetic substrate:” for “synthetic substrate:”, “(pH 7.4), Buffer and” for “(pH 7.4), enzyme: plasmin (0.4 U/ml), synthetic substrate: S-2251 (0.2 ml, 3 mM); • (d) borane buffer—0.5 ml (pH 7.5), Buffer and”

DLD cells = conditions: 24 h
urokinase [1] = biological target: T2, urokinase (Homo sapiens, UniProt P00749); experiment: Amidolytic activity of urokinase, substrate S-2444; format: biochemical; conditions: Ki calculated from IC50 by Cheng-Prusoff; triplicate; n.i. = no effect at maximum concentration 20 mM; read-out: Ki ± SD Urokinase S-2444
Description: Determination of amidolytic activity was performed as previously described (Okada et al. [1988]). The detailed description of the method is given below. The buffer and the enzyme solution included: • tris buffer—0.6 ml (pH 8.8),
enzyme: urokinase (50 U/ml),
synthetic substrate: S-2444 (0.1 ml, 3 mM); • (b) tris buffer—0.5 ml (pH 8.4),
as §2, with “Buffer” for “synthetic substrate: S-2238 (0.2 ml, 0.75 mM); • (c) tris buffer—0.5 ml (pH 7.4), enzyme: plasmin (0.4 U/ml), synthetic substrate: S-2251 (0.2 ml, 3 mM); • (d) borane buffer—0.5 ml (pH 7.5), Buffer”

urokinase [2] = biological target: T2, urokinase; conditions: cited from earlier work
urokinase [3] = biological target: T2, urokinase; experiment: Urokinase inhibition, literature or earlier data; format: biochemical; conditions: author's unpublished data, corresponding to earlier IC50 values
[4] = ref Markowska et al. [2008], read-out: IC50 urokinase

Compound	Ki (plasmin) [µM]	IC50 (MDA-MB-231 cells) [µM]	Ki (thrombin) [µM]	IC50 (DLD cells) [µM]	Ki (urokinase [1]) [µM]	other results
C[C@H](NC(=O)[C@@H](CO)NS(=O)(=O)Cc1ccccc1)C(=O)N[C@@H](CCCNC(=N)N)C(=O)NCCCCCN [Compound 1, PhCH2SO2-D-Ser-Ala-Arg-NH-(CH2)5-NH2]	2 ± 0.16	480	> 20000	460	> 20000	
CCC[C@H](NC(=O)[C@@H](CO)NS(=O)(=O)c1c(C(C)C)cc(C(C)C)cc1C(C)C)C(=O)N[C@@H](CCCNC(=N)N)C(=O)NCCCCCN [Compound 8, 2,4,6-TriiPrPhSO2-D-Ser-NVa-Arg-NH-(CH2)5-NH2]	52.7 ± 4.22	660	> 20000	330	> 20000	
CCC[C@H](NC(=O)[C@@H](CO)NS(=O)(=O)Cc1ccccc1)C(=O)N[C@@H](CCCNC(=N)N)C(=O)O [Compound 13, PhCH2SO2-D-Ser-NVa-Arg-OH]	13.6 ± 1.09	650	0.82 ± 0.06	180	> 20000	
α-tolyl-SO2-D-Ser-Ala-Arg-OH						Ki (urokinase [2]; ref Markowska et al. [2010]): 24 µM
CS(=O)(=O)N[C@H](CO)C(=O)NCC(=O)N[C@@H](CCCNC(=N)N)C(=O)NCCCCCN [Compound 6, CH3PhSO2-D-Ser-Gly-Arg-NH-(CH2)5-NH2]		450		260		
CCC[C@H](NC(=O)[C@H](N)CO)C(=O)N[C@@H](CCCNC(=N)N)C(=O)NCCCCCN [Compound 16, H-D-Ser-NVa-Arg-NH-(CH2)5-NH2]	137 ± 11	490	> 20000	260	> 20000	
CCC[C@H](NC(=O)[C@@H](CO)NS(=O)(=O)c1c(C(C)C)cc(C(C)C)cc1C(C)C)C(=O)N[C@@H](CCCNC(=N)N)C(=O)O [Compound 14, 2,4,6-TriiPrPhSO2-D-Ser-NVa-Arg-OH]		590		220		
phenethylsulfonyl-D-Ser-Ala-Arg-H						IC50 (urokinase [2]; ref Tamura et al. [2000], read-out: IC50 uPA): 0.0031 µM
N=C(N)NCCC[C@H](NC(=O)CNC(=O)[C@H](N)CO)C(=O)NCCCCCN [Compound 17, H-D-Ser-Gly-Arg-NH-(CH2)5-NH2]	139 ± 11.1	510	> 20000	250	> 20000	
H-D-Ser-Ala-Arg-NH-(CH2)5-NH2						Ki (urokinase [2]; ref Markowska et al. [2010]): 6.3 µM
CCC[C@H](NC(=O)[C@@H](CO)NS(C)(=O)=O)C(=O)N[C@@H](CCCNC(=N)N)C(=O)O [Compound 15, CH3PhSO2-D-Ser-NVa-Arg-OH] (Ms-[dS]-[Nva]-Arg-OH; N-terminus and C-terminus assumed)	167 ± 13.4	650	> 20000	270	> 20000	
CCC[C@H](NC(=O)[C@@H](CO)NS(=O)(=O)Cc1ccccc1)C(=O)N[C@@H](CCCNC(=N)N)C(=O)NCCCCCN [Compound 7, PhCH2SO2-D-Ser-NVa-Arg-NH-(CH2)5-NH2]	112 ± 8.95	680	> 20000	340	> 20000	
Glu-Gly-Arg-CH2Cl						Ki (urokinase [2]; ref Lijnen et al. [1987]): 5 µM
C[C@H](NC(=O)[C@H](N)CO)C(=O)N[C@@H](CCCNC(=N)N)C(=O)O [H-D-Ser-Ala-Arg-OH] (H-[dS]-Ala-Arg-OH)						Ki (urokinase [3]): 180 µM; IC50 (urokinase [2]; [4]): 2000 µM
CCC[C@H](NC(=O)[C@@H](CO)NS(C)(=O)=O)C(=O)N[C@@H](CCCNC(=N)N)C(=O)NCCCCCN [Compound 9, CH3PhSO2-D-Ser-NVa-Arg-NH-(CH2)5-NH2]		620		50		
CC(C)c1cc(C(C)C)c(S(=O)(=O)N[C@H](CO)C(=O)NCC(=O)N[C@@H](CCCNC(=N)N)C(=O)O)c(C(C)C)c1 [Compound 11, 2,4,6-TriiPrPhSO2-D-Ser-Gly-Arg-OH]	89.1 ± 7.13	570	> 20000	110	15.8 ± 1.27	
N=C(N)NCCC[C@H](NC(=O)CNC(=O)[C@@H](CO)NS(=O)(=O)Cc1ccccc1)C(=O)NCCCCCN [Compound 4, PhCH2SO2-D-Ser-Gly-Arg-NH-(CH2)5-NH2]	58.2 ± 4.65	580	> 20000	320	> 20000	
CC(C)c1cc(C(C)C)c(S(=O)(=O)N[C@H](CO)C(=O)N[C@@H](C)C(=O)N[C@@H](CCCNC(=N)N)C(=O)NCCCCCN)c(C(C)C)c1 [Compound 2, 2,4,6-TriiPrPhSO2-D-Ser-Ala-Arg-NH-(CH2)5-NH2]	90.9 ± 7.27	480	> 20000	390	> 20000	
N=C(N)NCCC[C@H](NC(=O)CNC(=O)[C@@H](CO)NS(=O)(=O)Cc1ccccc1)C(=O)O [Compound 10, PhCH2SO2-D-Ser-Gly-Arg-OH]	103 ± 8.22	640	0.97 ± 0.08	5	5.4 ± 0.43	
CC(C)c1cc(C(C)C)c(S(=O)(=O)N[C@H](CO)C(=O)NCC(=O)N[C@@H](CCCNC(=N)N)C(=O)NCCCCCN)c(C(C)C)c1 [Compound 5, 2,4,6-TriiPrPhSO2-D-Ser-Gly-Arg-NH-(CH2)5-NH2]	56.4 ± 4.51	510	> 20000	150	44.6 ± 3.57	
N=C(N)NCCC[C@H](NC(=O)CNC(=O)[C@H](N)CO)C(=O)O [H-D-Ser-Gly-Arg-OH] (H-[dS]-Gly-Arg-OH)						Ki (urokinase [3]): 90 µM; IC50 (urokinase [2]; [4]): 1000 µM
H-D-Ser-NVa-Arg-OH						Ki (urokinase [2]; ref Markowska et al. [2011]): 0.85 µM
C[C@H](NC(=O)[C@@H](CO)NS(C)(=O)=O)C(=O)N[C@@H](CCCNC(=N)N)C(=O)NCCCCCN [Compound 3, CH3PhSO2-D-Ser-Ala-Arg-NH-(CH2)5-NH2]		570		390		
